How the values were obtained:
Assay type in all cases: in vivo
[1] = tested on: Diabrotica balteata; test: Diabrotica balteata spray test; details: Diabrotica balteata, in Triticum aestivum, 168 h, after 7 days, larvae on wheat seeds, read-out: efficacy (seedlings grown up); for pest or weed control at 160 µg/disc, 500 g/ha: 160 μg/well (=500 g/ha); for pest or weed control at 80 µg/disc, 250 g/ha: 80 μg/well (=250 g/ha)
Experimental: Diabrotica balteata—Spray Test [table] To produce a suitable preparation of active compound, 1 part by weight of active compound is mixed with the stated amount of solvent, and the concentrate is diluted with water, containing an emulsifier concentration of 1000 ppm, to the desired concentration. Further test concentrations are prepared by dilution with emulsifier containing water. Soaked wheat seeds (Triticum aestivum) are placed in a multiple well plate filled with agar and some water and are incubated for 1 day to germinate (5 seeds per well). The germinated wheat seeds are sprayed with a test solution containing the desired concentration of the active ingredient. Afterwards each unit is infected with 10-20 larvae of the banded cucumber beetle (Diabrotica balteata). After 7 days efficacy in % is determined. 100% means all the seedlings have grown up like in the untreated, uninfected control; 0% means none of the seedlings have grown.

[2] = tested on: Myzus persicae; test: Myzus persicae oral test; details: 120 h, 4 ppm, after 5 days
Experimental: Solvent: 100 parts by weight acetone
To produce a suitable preparation of active compound, 1 part by weight of active compound is mixed with the stated amount of solvent, and the concentrate is diluted with water to the desired concentration.
50 μl compound solution is filled in microtiter plates and 150 μl IPL41 insect medium (33%+15% sugar) is added to obtain a total volume of 200 μl per well. Afterwards the plates are sealed with parafilm through which a mixed population of the green peach aphid (Myzus persicae) can suck on the compound preparation.
(§1) After 5 days mortality in % is determined. 100% means all aphids have been killed and 0% means none of the aphids have been killed.

[3] = tested on: Myzus persicae; test: Myzus persicae spray test; details: foliar, 120 h, after 5 days, Chinese cabbage leaf disks
Experimental: Myzus persicae—Spray Test
(§2) To produce a suitable preparation of active compound, 1 part by weight of active compound is mixed with the stated amount of solvents and is diluted with water, containing an emulsifier concentration of 1000 ppm, to the desired concentration. Further test concentrations are prepared by dilution with emulsifier containing water.
Chinese cabbage (Brassica pekinensis) leaf disks infected with all instars of the green peach aphid (Myzus persicae), are sprayed with a preparation of the active ingredient of the desired concentration.
as §1

[4] = tested on: Nezara viridula; test: Nezara viridula spray test; details: 96 h, after 4 days, larvae on barley plants
Experimental: Nezara viridula—Spray Test
To produce a suitable preparation of active compound, 1 part by weight of active compound is mixed with the stated amount of solvent, and the concentrate is diluted with water, containing an emulsifier concentration of 1000 ppm, to the desired concentration. Further test concentrations are prepared by dilution with emulsifier containing water.
Barley plants (Hordeum vulgare) infested with larvae of the southern green stink bug (Nezara viridula) are sprayed with a test solution containing the desired concentration of the active ingredient.
After 4 days mortality in % is determined. 100% means all the stink bugs have been killed: 0% means none of the stink bugs have been killed.

[5] = tested on: Spodoptera frugiperda; test: Spodoptera frugiperda spray test; details: 168 h, after 7 days, larvae on maize leaf sections
Experimental: Spodoptera frugiperda—Spray Test
as §2
Maize (Zea mays) leaf sections are sprayed with a preparation of the active ingredient of the desired concentration. Once dry, the leaf sections are infested with fall armyworm larvae (Spodoptera frugiperda).
After 7 days mortality in % is determined. 100% means all caterpillars have been killed and 0% means none of the caterpillars have been killed.

[6] = tested on: Ctenocephalides felis; test: Ctenocephalides felis oral test; details: 48 h, 100 ppm in cattle blood, after 2 days, adult unfed cat fleas
Experimental: Ctenocephalides Felis—Oral Test
Solvent: dimethyl sulfoxide
To produce a suitable preparation of active compound, 10 mg of active compound are dissolved in 0.5 ml solvent, and the concentrate is diluted with cattle blood to the desired concentration.
Approximately 20 adult unfed cat fleas (Ctenocephalides felis) are placed in flea chambers. The blood chamber, sealed with parafilm on the bottom, are filled with cattle blood supplied with compound solution and placed on the gauze covered top of the flea chamber, so that the fleas are able to suck the blood. The blood chamber is heated to 37° C. whereas the flea chamber is kept at room temperature.
After 2 days mortality in % is determined. 100% means all the fleas have been killed; 0% means none of the fleas have been killed.

[7] = tested on: Boophilus microplus; test: Boophilus microplus injection test; details: Rhipicephalus microplus, 168 h; 20 μg/animal injected into the abdomen; adult engorged female ticks; egg deposition after 7 days; read-out: efficacy (infertile eggs)
Experimental: Boophilus Microplus—Injection Test Solvent: dimethyl sulfoxide To produce a suitable preparation of active compound, 10 mg of active compound are dissolved in 0.5 ml solvent, and the concentrate is diluted with solvent to the desired concentration. Five adult engorged female ticks (Boophilus microplus) are injected with 1 μl compound solution into the abdomen. The ticks are transferred into replica plates and incubated in a climate chamber. After 7 days egg deposition of fertile eggs is monitored. Eggs where fertility is not visible are stored in a climate chamber till hatching after about 42 days. An efficacy of 100% means all eggs are infertile; 0% means all eggs are fertile.

[8] = tested on: Aedes aegypti strain MONHEIM; test: Aedes aegypti test (AEDSAE surface treatment & contact assay); details: 24 hours after contact, read-out: efficacy (mortality)
Experimental: Aedes Aegypti Test (AEDSAE Surface Treatment & Contact Assay)
Solvent: Aceton+2000 ppm rapeseed oil methyl ester (RME)
In order to produce a sufficient, active ingredient containing solution it is necessary to solve the test compound in the solvent-mix (acetone at 2 mg/ml/RME 2000 ppm). This solution is pipetted onto a glazed tile and after evaporation of the acetone, adult mosquitoes of the species Aedes aegypti strain MONHEIM are placed onto the dried surface. The exposure time is 30 minutes.
Mortality in percent (%) is determined 24 hours after contact of the insects to the treated surface. 100% mortality means that all tested insects are dead, whereas 0% means that no insect died.

| Compound | pest or weed control at 160 µg/disc, 500 g/ha [1] [%] | mortality at 4 ppm [2] [%] | mortality at 500 g/ha [3] [%] | mortality at 500 g/ha [4] [%] | mortality at 100 g/ha [5] [%] | mortality at 500 g/ha [5] [%] | mortality at 100 g/ha [3] [%] | mortality at 100 g/ha [4] [%] | pest or weed control at 80 µg/disc, 250 g/ha [1] [%] | mortality at 100 ppm [6] [%] | pest or weed control at 0.02 mg [7] [%] | mortality at 4 mg/m2 ([8]; surface concentration 4 mg/m^2, exposure 30 minutes) [%] | mortality at 20 mg/m2 ([8]; surface concentration 20 mg/m^2, exposure 30 minutes) [%] |
| --- | --- | --- | --- | --- | --- | --- | --- | --- | --- | --- | --- | --- | --- |
| C[C@H](NC(=O)c1cc(Cl)cc(C(F)(F)F)c1)c1ncnn1-c1ccc(NC(=O)C2(Cl)CC2)cn1 [Example I-104] | 100 | 90 | 90 | 90 | 100 | 100 |  |  |  |  |  |  |  |
| Cc1nc([C@H](C)NC(=O)c2cc(Cl)cc(OC(F)(F)F)c2)n(-c2ccc(C#N)cn2)n1 [Example I-116] | 100 | 100 | 100 | 100 | 100 | 100 | 100 | 90 |  |  |  |  |  |
| C[C@H](NC(=O)c1cc(Cl)cc(C(F)(F)F)c1)c1ncnn1-c1ccc(C(=O)N(C)C2CC2)cn1 [Example I-110, 6-(5-{(1S)-1-[3-chloro-5-(trifluoromethyl)benzamido]ethyl}-1H-1,2,4-triazol-1-yl)-N-cyclopropyl-N-methylnicotinamide] | 100 |  | 100 | 90 | 100 | 100 | 90 |  |  |  |  |  |  |
| C[C@H](NC(=O)c1cc(Cl)cc(C(F)(F)F)c1)c1ncnn1-c1ccc(NS(C)(=O)=O)cn1 [Example I-054] | 100 | 100 | 90 | 100 |  |  | 90 | 90 | 100 |  |  |  |  |
| C[C@H](NC(=O)c1cc(Cl)cc(OC(F)F)c1)c1ncnn1-c1ccc(C#N)cn1 [Example I-107] | 100 | 100 | 90 | 100 | 100 | 100 | 90 | 100 |  |  |  |  |  |
| C[C@H](NC(=O)c1cc(Cl)cc(C(F)(F)F)c1)c1ncnn1-c1ccc(NC(=S)C2CC2)cn1 [Example I-098] | 100 | 100 | 90 | 90 | 100 | 100 | 90 |  | 100 | 100 |  |  |  |
| C[C@H](NC(=O)c1cc(Cl)cc(OC(F)(F)F)c1)c1ncnn1-c1ccc(NC(=O)C2CC2)cn1 [Example I-105] | 100 | 100 | 90 | 100 | 100 | 100 |  | 100 | 100 |  |  |  |  |
| CON=Cc1ccc(-n2ncnc2[C@H](C)NC(=O)c2cc(Cl)cc(C(F)(F)F)c2)nc1 [Example I-065, 3-chloro-N-[(1S)-1-(1-{5-[(methoxyimino)methyl]pyridin-2-yl}-1H-1,2,4-triazol-5-yl)ethyl]-5-(trifluoromethyl)benzamide] | 100 |  | 90 | 90 | 100 | 100 |  |  | 100 |  |  |  |  |
| C[C@H](NC(=O)c1cc(Cl)cc(C(F)(F)F)c1)c1ncnn1-c1ccc(NC(=O)CC#N)cn1 [Example I-073] | 100 |  | 90 |  |  |  |  |  | 100 | 100 | 100 |  |  |
| C[C@H](NC(=O)c1cc(F)c(Cl)c(F)c1)c1ncnn1-c1ccc(C#N)cn1 [Example I-021] |  | 100 |  |  |  | 100 | 100 |  |  | 100 |  |  |  |
| CC(=O)Nc1ccc(-n2ncnc2[C@H](C)NC(=O)c2cc(Cl)cc(OC(F)(F)F)c2)nc1 [Example I-106] | 100 | 100 | 90 | 100 | 100 | 100 |  |  | 100 |  |  |  |  |
| C[C@H](NC(=O)c1cncc(I)c1)c1ncnn1-c1ccc(C#N)cn1 [Example I-063] | 100 | 100 |  |  |  | 83 |  |  | 100 | 100 | 100 | 90 to 100 | 90 to 100 |
| Cc1nc([C@H](C)NC(=O)c2cc(Cl)cc(Cl)c2)n(-c2ccc(C#N)cn2)n1 [Example I-115] | 100 | 100 | 100 | 100 | 100 | 100 | 90 |  |  |  |  |  |  |

Source: patent US12171229B2, “Heteroaryl-triazole and heteroaryl-tetrazole compounds as pesticides” (BAYER AKTIENGESELLSCHAFT, priority 2018, dated 2024)
